11 molecules from ChEMBL document CHEMBL1201862, “PubChem BioAssay data set” (2004) can be followed below.

Test systems include SF-539; NCI-H460; SW-620; SK-MEL-5; EKVX; SR; M14; RPMI-8226; UACC-257; SNB-75; SNB-19; SN12C; SF-295; RXF 393; OVCAR-8; Malme-3M; U-251; OVCAR-5; NCI-H522; COLO 205.
Common to all, as to test: inhibition of tumour cell growth, NCI panel, 48 h

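How tested: cells in 96-well plates exposed to compound for 48 hours at five concentrations. GI50 marks 50% less growth.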 Activity calls are given as the source filed them. Cut-off read from the data, not from the text of the source: active = GI50 up to about 1.1 µM and inactive = higher.

For the molecule `COc1cc(/C=N/c2nncs2)ccc1O`, the GI50 with SF-539, in the test with NCI-H460, with SW-620, in the test on SK-MEL-5, in the test with EKVX and in the test with SR was > 100 µM (inactive) throughout. The GI50 in the test on M14, in the test on RPMI-8226, in the test on UACC-257, with SNB-75, with SNB-19 and in the test on SN12C was > 100 µM (inactive) throughout. Further, the GI50 in the test on SF-295, in the test on RXF 393, in the test on OVCAR-8, in the test on Malme-3M, with U-251 and in the test on OVCAR-5 was > 100 µM (inactive) in each case.

Consider `CC1(C)CCOC(=O)C(Cl)CC1Cl` (stereo unspecified), for which the GI50 in the test with SF-539, in the test with NCI-H460, in the test on SW-620, with SK-MEL-5, in the test with EKVX and with SR was > 100 µM (inactive) throughout. Also, the GI50 in the test on NCI-H522, in the test on M14, in the test with UACC-257, in the test on SNB-19, with SN12C and in the test on COLO 205 was > 100 µM (inactive) each time. The GI50 in the test on SF-295, in the test with RXF 393, in the test with OVCAR-8, in the test on Malme-3M, with U-251 and in the test with OVCAR-5 was > 100 µM (inactive) throughout.

Consider `Fc1ccc2c3c([nH]c2c1)CCNC3`, for which the GI50 in the test on SF-539, in the test on NCI-H460, in the test with SW-620, with SK-MEL-5, in the test with EKVX and with SR was > 100 µM (inactive) each time. Besides, the GI50 in the test with M14, in the test on RPMI-8226, in the test with UACC-257, with SNB-75, in the test on SNB-19 and in the test on SN12C was > 100 µM (inactive) each time. Moreover, the GI50 is > 100 µM (inactive) in the test with COLO 205; 67.8 µM (inactive) in the test with SF-295; > 100 µM (inactive) with RXF 393; > 100 µM (inactive) with OVCAR-8; > 100 µM (inactive) in the test with Malme-3M; > 100 µM (inactive) with U-251. For the same molecule, the GI50 in the test on OVCAR-5 is > 100 µM (inactive).

On to `Oc1ccc(/N=N/c2ccc(Cl)cc2)cc1`, for which the GI50 with SF-539 is 18.4 µM (inactive); in the test with NCI-H460, 16.9 µM (inactive); with SW-620, 30.5 µM (inactive); with SK-MEL-5 it was 11.7 µM (inactive); in the test on EKVX, 17.3 µM (inactive); in the test on SR it was 19.5 µM (inactive). For the same molecule, the GI50 was 11.6 µM (inactive) in the test with NCI-H522; 10.7 µM (inactive) in the test with M14; 24.2 µM (inactive) with RPMI-8226; 15.8 µM (inactive) in the test on UACC-257; 18.9 µM (inactive) in the test with SNB-75; 18 µM (inactive) in the test on SNB-19. The GI50 with SN12C is 17.1 µM (inactive); in the test on COLO 205 it was 18.4 µM (inactive); in the test with SF-295, 16.4 µM (inactive); in the test with RXF 393, 15.4 µM (inactive); in the test with OVCAR-8, 16.6 µM (inactive); with U-251 it was 15.4 µM (inactive). The GI50 in the test with OVCAR-5 is 17.4 µM (inactive).

`CCc1cccc(CC)c1NC(=O)C(=O)Cc1nc2ccccc2o1`: the GI50 with SF-539, with NCI-H460, in the test on SW-620, in the test on EKVX, in the test on SR and in the test on NCI-H522 was > 100 µM (inactive) in each case. In addition, the GI50 in the test with M14, in the test with RPMI-8226, with UACC-257, in the test with SNB-19, with SN12C and in the test with COLO 205 was > 100 µM (inactive) in each case. Moreover, the GI50 with SF-295, with RXF 393, in the test on OVCAR-8, with Malme-3M, with U-251 and in the test on OVCAR-5 was > 100 µM (inactive) in each case.

With `Cc1ccc(O)c(C(c2cc(C)ccc2O)c2cc([N+](=O)[O-])ccc2O)c1`, the GI50 with SF-539 was 15.7 µM (inactive); with SW-620, 24.3 µM (inactive); in the test on SK-MEL-5 it was 38.6 µM (inactive); with EKVX it was 15.2 µM (inactive); in the test on SR, 8.43 µM (inactive); in the test on NCI-H522, 13.2 µM (inactive). The GI50 with M14 is 11 µM (inactive); in the test on RPMI-8226 it was 13.7 µM (inactive); with UACC-257, 16.6 µM (inactive); in the test on SNB-75 it was 5.46 µM (inactive); in the test with SNB-19, > 10 µM (inactive); in the test on SN12C, 14.7 µM (inactive). The GI50 in the test with COLO 205 was 17.8 µM (inactive); with SF-295 it was 16.7 µM (inactive); with RXF 393, 17.8 µM (inactive); in the test with OVCAR-8, 3.66 µM (inactive); in the test on U-251 it was 15.7 µM (inactive); in the test with OVCAR-5, 14.3 µM (inactive).

As for `Cc1cc(O)c2c(c1)C(O)(c1ccc3c(c1O)C(=O)c1c(O)cc(C)cc1C3(O)C1OC(CO)C(O)C(O)C1O)c1cccc(O)c1C2=O` (stereo unspecified), the GI50 in the test with SF-539 was 13.6 µM (inactive); with NCI-H460 it was 14 µM (inactive); in the test with SW-620, 17.3 µM (inactive); in the test on SK-MEL-5, 18.9 µM (inactive); in the test with EKVX it was 14.3 µM (inactive); in the test with SR, 8.15 µM (inactive). Moreover, the GI50 with M14 was 14.4 µM (inactive); with RPMI-8226 it was 16 µM (inactive); in the test with UACC-257 it was 13.7 µM (inactive); in the test on SNB-75, 14.1 µM (inactive); in the test with SNB-19, 16.4 µM (inactive); in the test on SF-295 it was 11.6 µM (inactive). In addition, the GI50 in the test with RXF 393 was 12.1 µM (inactive); in the test with OVCAR-8, 13.4 µM (inactive); in the test on Malme-3M, 11.7 µM (inactive); with U-251, 11.6 µM (inactive); in the test on OVCAR-5, 18.1 µM (inactive).

Consider `COc1ccc(/N=C(/C[S+]([O-])c2ccc(C)cc2)C(F)(F)F)cc1` (stereo unspecified), for which the GI50 in the test with SF-539, in the test on NCI-H460, with SW-620, with SK-MEL-5, with EKVX and with SR was > 100 µM (inactive) each time. In addition, the GI50 with NCI-H522 is > 100 µM (inactive); in the test with M14, > 100 µM (inactive); in the test with UACC-257 it was > 100 µM (inactive); with SNB-75, > 100 µM (inactive); in the test with SNB-19, 71.8 µM (inactive); in the test with SN12C, > 100 µM (inactive). Besides, the GI50 was > 100 µM (inactive) in the test with COLO 205; 56.2 µM (inactive) with SF-295; > 100 µM (inactive) in the test on RXF 393; > 100 µM (inactive) with OVCAR-8; > 100 µM (inactive) with Malme-3M; > 100 µM (inactive) in the test with U-251. Besides, the GI50 in the test on OVCAR-5 is > 100 µM (inactive).

Take `CCN(CC)CCCNc1ccc([N+](=O)[O-])c2nc3ccccc3c(N)c12`: the GI50 was 0.495 µM (active) in the test on SF-539; 0.379 µM (active) in the test with NCI-H460; 0.365 µM (active) in the test on SW-620; 0.241 µM (active) in the test on SK-MEL-5; 1.01 µM (active) in the test with EKVX; 0.512 µM (active) with SR. The GI50 in the test on M14 was 1.08 µM (active); in the test with RPMI-8226, 0.555 µM (active); in the test with UACC-257, 4.88 µM (inactive); in the test with SNB-75, 1.19 µM (inactive); in the test with SNB-19, 0.929 µM (active); in the test with SN12C it was 0.74 µM (active). Further, the GI50 in the test on SF-295 was 0.581 µM (active); in the test with RXF 393 it was 0.37 µM (active); with OVCAR-8 it was 0.65 µM (active); in the test on Malme-3M it was 2.48 µM (inactive); with OVCAR-5, 0.802 µM (active).

For `CC(C)=CC(=O)O[C@@H]1CC(C)(C)CC2C3=CCC4[C@]56CC[C@](O)(OC5)C(C)(C)C6CC[C@@]4(C)C3(C)CC[C@]21C(=O)O` (stereo partly specified), the GI50 in the test on SF-539 is 38.5 µM (inactive); in the test with NCI-H460, 35.2 µM (inactive); with SW-620, > 100 µM (inactive); with SK-MEL-5, > 100 µM (inactive); with EKVX it was > 100 µM (inactive); in the test with SR it was 61 µM (inactive). Besides, the GI50 is 51.6 µM (inactive) in the test with NCI-H522; > 100 µM (inactive) in the test on M14; 27.8 µM (inactive) in the test with RPMI-8226; > 100 µM (inactive) with UACC-257; 54.3 µM (inactive) in the test with SNB-19; 53.2 µM (inactive) in the test on SN12C. The GI50 was 22.8 µM (inactive) in the test on COLO 205; 56.5 µM (inactive) in the test with SF-295; > 100 µM (inactive) with RXF 393; 59.6 µM (inactive) with OVCAR-8; > 100 µM (inactive) with Malme-3M; 32.9 µM (inactive) in the test on U-251. In the test on OVCAR-5, the GI50 is > 100 µM (inactive).

For the molecule `c1cc2c(cc1NC1=NCCO1)CCC2`, the GI50 was 3.08 µM (inactive) in the test on SF-539; 8.26 µM (inactive) with SW-620; > 10 µM (inactive) in the test on SK-MEL-5; > 10 µM (inactive) in the test on EKVX; > 10 µM (inactive) in the test with SR; > 10 µM (inactive) with RPMI-8226. For the same molecule, the GI50 is 9.1 µM (inactive) with SNB-75; 0.0869 µM (active) in the test on SNB-19; > 10 µM (inactive) in the test with SN12C; > 10 µM (inactive) with COLO 205; > 10 µM (inactive) in the test on SF-295; > 10 µM (inactive) in the test on RXF 393. The GI50 in the test with OVCAR-8 and with Malme-3M was > 10 µM (inactive) throughout.
